38 compounds from US20210220328A1, “PYRROLE DERIVATIVES AS ACC INHIBITORS” (Almirall, S.A., priority 2017, published 2021) can be followed below.

For this assay, the system named is immortalized human sebocyte cell line, SZ95. The assay can be described thus: In vitro assay of inhibition of lipid synthesis. The format is cell-based. As to conditions: 48 h, SZ95 sebocytes. On the procedure:
In Vitro Assay of Inhibition of Lipid Synthesis
To evaluate the inhibition of lipid synthesis, the immortalized human sebocyte cell line, SZ95 (stablished by Zouboulis, C. C. et al J Invest Dermatol 1999; 113:1011-20), was treated with arachidonic acid (AA) in presence or absence of compound. Lipids were detected by using a lipid sensing fluorophore.
Compounds were dissolved in dimethylsulfoxide (DMSO) 100%. Then the stocks were serial diluted 1/3 in DMSO 100%, and this battery of solutions were diluted 1/10 in culture medium, to minimize the percentage of the DMSO over cells.
10 k cells were plated in 384 well microtiter plates and incubated at 37° C. and 5% CO2 in DMEM/F12 supplemented with 10% FBS, 1.25 ng/ml of rhEGF and GA-1000 before of compound and stimulus addition. After 24 h, compounds dissolved in culture media were added over cells, diluting the solutions prepared 1/40 in the final volume of the assay. Then, cells and compounds were preincubated for 30 min at 37° C. and 5% CO2. After this prior incubation, the lipid synthesis was induced by 75 μM of AA final solution, preparing a solution 10× in culture media. Finally, SZ95 treated were incubated for 48 h at 37° C. and 5% CO2.
Neutral lipids were measured using AdipoRed™, purchased from LONZA. To do that, cells were washed with PBS and incubated with a solution of AdipoRed™ (final dilution 1/80 in PBS) for 30 min at room temperature. After the staining process, the fluorescence intensity (FI) was quantified using a fluorescence plate reader (excitation 485 nm; emission 535).
Activity of compounds were calculated as % of inhibition considering the maximal fluorescence for AA-stimulated cells and the minimum fluorescence for unstimulated cells as controls.

Setting [1] is: lipid synthesis induced by 75 μM arachidonic acid, AdipoRed fluorescence, Table 1.
The mark [2] stands for this setting: 75 μM arachidonic acid, AdipoRed, Table 2, finer classes for compounds with IC50 less than 250 nM.

As usually defined, the IC50 is the concentration that gives 50% inhibition. Lower therefore signals higher potency. `CCCCCCCCCCCCCc1c[nH]c(C(=O)OCCCCCCCCO)c1F` [Example 38, 8-Hydroxyoctyl 3-fluoro-4-tridecyl-1H-pyrrole-2-carboxylate] registered an IC50 under setting [1] of 250 to 1000 nM. As to `CCCCCCCCCCCCCc1c[nH]c(C(=O)OCCCCCCCCCO)c1F` [Example 39, 9-Hydroxynonyl 3-fluoro-4-tridecyl-1H-pyrrole-2-carboxylate], the IC50 reads like this: under setting [2], below 50 nM; under setting [1], below 250 nM. As for `CCCCCCCCCCCCCc1c[nH]c(C(=O)OCC(O)CO)c1F` (stereo not drawn) [Example 40, 2,3-Dihydroxypropyl 3-fluoro-4-tridecyl-1H-pyrrole-2-carboxylate], the half-inhibitory concentration (IC50) was below 50 nM under setting [2] and below 250 nM under setting [1].

For `CCCCCCCCCCCCCc1c[nH]c(C(=O)OC(CO)CO)c1F` [Example 41, 1,3-Dihydroxypropan-2-yl 3-fluoro-4-tridecyl-1H-pyrrole-2-carboxylate], the 50% inhibitory concentration (IC50) under setting [2] was below 50 nM and the 50% inhibitory concentration (IC50) under setting [1] was below 250 nM. In the same order, the values of `CCCCCCCCCCCCCc1c[nH]c(C(=O)OCCOCCOCCOCCO)c1F` [Example 42, 2-(2-(2-(2-Hydroxyethoxy)ethoxy)ethoxy)ethyl 3-fluoro-4-tridecyl-1H-pyrrole-2-carboxylate] are 100 to 250 nM and below 250 nM. For `CCCCCCCCCCCCCc1c[nH]c(C(=O)OCCOCCOCC)c1F` [Example 43, 2-(2-Ethoxyethoxy)ethyl 3-fluoro-4-tridecyl-1H-pyrrole-2-carboxylate], in that order: below 50 nM and below 250 nM. In the same order, the values of `CCCCCCCCCCCCCc1c[nH]c(C(=O)OC(C)OC(=O)OC(C)C)c1F` (stereo not drawn) [Example 44, 1-((Isopropoxycarbonyl)oxy)ethyl 3-fluoro-4-tridecyl-1H-pyrrole-2-carboxylate] are below 50 nM and below 250 nM. `CCCCCCCCCCCCCc1c[nH]c(C(=O)OC(C)OC(=O)OC(C)(C)C)c1F` (stereo not drawn) [Example 45, 1-((Tert-butoxycarbonyl)oxy)ethyl 3-fluoro-4-tridecyl-1H-pyrrole-2-carboxylate]: the half-inhibitory concentration (IC50) under setting [2] was 50 to 100 nM and the IC50 under setting [1] was below 250 nM. `CCCCCCCCCCCCCc1c[nH]c(C(=O)OC(C)OC(=O)OCCCCCCCCC)c1F` (stereo not drawn) [Example 46, 1-(((Nonyloxy)carbonyl)oxy)ethyl 3-fluoro-4-tridecyl-1H-pyrrole-2-carboxylate] had an IC50 under setting [1] above 5000 nM. In the case of `CCCCCCCCCCCCCc1c[nH]c(C(=O)OC(C)OC(=O)OC2CCCCC2)c1F` (stereo not drawn) [Example 47, 1-(((Cyclohexyloxy)carbonyl)oxy)ethyl 3-fluoro-4-tridecyl-1H-pyrrole-2-carboxylate], the IC50 reads like this: under setting [2], 50 to 100 nM; under setting [1], below 250 nM.

On to `CCCCCCCCCCCCCc1c[nH]c(C(=O)OC(C)OC(=O)OCc2ccccc2)c1F` (stereo not drawn) [Example 48, 1-(((Benzyloxy)carbonyl)oxy)ethyl 3-fluoro-4-tridecyl-1H-pyrrole-2-carboxylate], for which the half-inhibitory concentration (IC50) by setting is: under setting [2], below 50 nM; under setting [1], below 250 nM.

Consider `CCCCCCCCCCCCCc1c[nH]c(C(=O)OC(C)OC(=O)OCCOC)c1F` (stereo not drawn) [Example 49, 1-(((2-Methoxyethoxy)carbonyl)oxy)ethyl 3-fluoro-4-tridecyl-1H-pyrrole-2-carboxylate], for which the half-maximal inhibitory concentration (IC50) reads like this: under setting [2], below 50 nM; under setting [1], below 250 nM. As for `CCCCCCCCCCCCCc1c[nH]c(C(=O)OC(C)OC(=O)OCCCO)c1F` (stereo not drawn) [Example 50, 1-(((3-Hydroxypropoxy)carbonyl)oxy)ethyl 3-fluoro-4-tridecyl-1H-pyrrole-2-carboxylate], the half-maximal inhibitory concentration (IC50) runs as follows: under setting [2], below 50 nM; under setting [1], below 250 nM. For `CCCCCCCCCCCCCc1c[nH]c(C(=O)OC(C)OC(=O)OCCOCCOCC)c1F` (stereo not drawn) [Example 51, 4-Oxo-3,5,8,11-tetraoxatridecan-2-yl 3-fluoro-4-tridecyl-1H-pyrrole-2-carboxylate], in that order: below 50 nM and below 250 nM. In the same order, the values of `CCCCCCCCCCCCCCc1c[nH]c(C(=O)O)c1F` [Example 52, 3-Fluoro-4-tetradecyl-1H-pyrrole-2-carboxylic acid] are below 50 nM and below 250 nM. `CCCCCCCCCCCCCCCc1c[nH]c(C(=O)O)c1F` [Example 53, 3-Fluoro-4-pentadecyl-1H-pyrrole-2-carboxylic acid]: the half-maximal inhibitory concentration (IC50) was below 50 nM under setting [2] and below 250 nM under setting [1]. As for `CCCCCCCCCCCCCCCCCc1c[nH]c(C(=O)O)c1F` [Example 54, 3-Fluoro-4-heptadecyl-1H-pyrrole-2-carboxylic acid], the IC50 was below 50 nM under setting [2] and below 250 nM under setting [1]. In the same order, the values of `CCCCCCCCCCCCc1cc(F)c(C(=O)O)[nH]1` [Example 55, 5-Dodecyl-3-fluoro-1H-pyrrole-2-carboxylic acid] are 50 to 100 nM and below 250 nM. In the same order, the values of `CCCCCCCCCCc1c[nH]c(C(=O)O)c1Cl` [Example 56, 3-Chloro-4-decyl-1H-pyrrole-2-carboxylic acid] are 50 to 100 nM and below 250 nM. Take `CCCCCCCCCCCc1c[nH]c(C(=O)O)c1Cl` [Example 57, 3-Chloro-4-undecyl-1H-pyrrole-2-carboxylic acid]: the 50% inhibitory concentration (IC50) runs as follows: under setting [2], below 50 nM; under setting [1], below 250 nM. For `CCCCCCCCCCCCc1c[nH]c(C(=O)O)c1Cl` [Example 58, 3-Chloro-4-dodecyl-1H-pyrrole-2-carboxylic acid], the IC50 under setting [2] is below 50 nM and the IC50 under setting [1] was below 250 nM.

`CCCCCCCCCCCCc1c[nH]c(C(=O)OCCCCCCCCCO)c1Cl` [Example 59, 9-Hydroxynonyl 3-chloro-4-dodecyl-1H-pyrrole-2-carboxylate] showed an IC50 under setting [1] of 250 to 1000 nM. Compound `CCCCCCCCCCCCc1c[nH]c(C(=O)OCCN2C(=O)CCC2=O)c1Cl` [Example 60, 2-(2,5-dioxopyrrolidin-1-yl)ethyl 3-chloro-4-dodecyl-1H-pyrrole-2-carboxylate] showed an IC50 under setting [1] of 1000 to 5000 nM. For `CCCCCCCCCCCCCc1c[nH]c(C(=O)O)c1Cl` [Example 61, 3-Chloro-4-tridecyl-1H-pyrrole-2-carboxylic acid], the half-maximal inhibitory concentration (IC50) is 100 to 250 nM under setting [2] and below 250 nM under setting [1]. `CCCCCCCCCCCCCCCc1c[nH]c(C(=O)O)c1Cl` [Example 62, 3-Chloro-4-pentadecyl-1H-pyrrole-2-carboxylic acid] displayed an IC50 under setting [1] of 250 to 1000 nM. Still for that read-out and setting: in the case of `CCCCCCCCCCCCCCCCc1c[nH]c(C(=O)O)c1Cl` [Example 63, 3-Chloro-4-hexadecyl-1H-pyrrole-2-carboxylic acid] it was 250 to 1000 nM. Regarding `CCCCCCCCCCCc1cc(Cl)c(C(=O)O)[nH]1` [Example 64, 3-Chloro-5-undecyl-1H-pyrrole-2-carboxylic acid], the IC50 is 50 to 100 nM under setting [2] and below 250 nM under setting [1].

Regarding `CCCCCCCCCCCCc1cc(Cl)c(C(=O)O)[nH]1` [Example 65, 3-Chloro-5-dodecyl-1H-pyrrole-2-carboxylic acid], the half-inhibitory concentration (IC50) reads like this: under setting [2], 50 to 100 nM; under setting [1], below 250 nM. For `CCCCCCCCCCCCCc1cc(Cl)c(C(=O)O)[nH]1` [Example 66, 3-Chloro-5-tridecyl-1H-pyrrole-2-carboxylic acid], in that order: 100 to 250 nM and below 250 nM. On to `CCCCCCCCCCCCCCc1cc(Cl)c(C(=O)O)[nH]1` [Example 67, 3-Chloro-5-tetradecyl-1H-pyrrole-2-carboxylic acid], for which, under setting [1], the IC50 lay within 250 to 1000 nM. As for `CCCCCCCCCCCCCc1c[nH]c(C(=O)O)c1Br` [Example 68, 3-Bromo-4-tridecyl-1H-pyrrole-2-carboxylic acid], under setting [1], the IC50 lay within 250 to 1000 nM. The compound `CCCCCCCCCCCCCc1cn(CCCC)c(C(=O)O)c1F` [Example 69, 1-Butyl-3-fluoro-4-tridecyl-1H-pyrrole-2-carboxylic acid] showed an IC50 under setting [1] of 1000 to 5000 nM. On the same count and under the same terms, under `CCCCCCCCCCCCCc1cn(C(C)C)c(C(=O)O)c1F` [Example 70, 3-Fluoro-1-isopropyl-4-tridecyl-1H-pyrrole-2-carboxylic acid] stands 1000 to 5000 nM.

In the case of `CCCCCCCCCCOc1c[nH]c(C(=O)O)c1F` [Example 71, 4-(Decyloxy)-3-fluoro-1H-pyrrole-2-carboxylic acid], the IC50 is below 50 nM under setting [2] and below 250 nM under setting [1]. As to `CCCCCCCCCCCOc1c[nH]c(C(=O)O)c1F` [Example 72, 3-Fluoro-4-(undecyloxy)-1H-pyrrole-2-carboxylic acid], the IC50 runs as follows: under setting [2], below 50 nM; under setting [1], below 250 nM. With `CCCCCCCCCCCCOc1c[nH]c(C(=O)O)c1F` [Example 73, 4-(Dodecyloxy)-3-fluoro-1H-pyrrole-2-carboxylic acid], the concentration for half-maximal inhibition (IC50) reads like this: under setting [2], below 50 nM; under setting [1], below 250 nM. For `CCCCCCCCCCCCCOc1c[nH]c(C(=O)O)c1F` [Example 74, 3-Fluoro-4-(tridecyloxy)-1H-pyrrole-2-carboxylic acid], in that order: below 50 nM and below 250 nM.

For the compound `CCCCCCCCCCCCCCOc1c[nH]c(C(=O)O)c1F` [Example 75, 3-Fluoro-4-(tetradecyloxy)-1H-pyrrole-2-carboxylic acid], the IC50 reads like this: under setting [2], below 50 nM; under setting [1], below 250 nM.
